Laboratory results published in patent US11053204B2, “Pyrimidinyloxy benzene derivatives as herbicides” (FMC Corporation, priority 2015, dated 2021).

Experiments:
Assay type in all cases: in vivo
[1] = system: barnyardgrass (Echinochloa crus-galli); experiment: Test A preemergence, visual injury rating; settings: Echinochloa crus-galli, pre-emergence, 240 h, 0 to 100 scale (0 no effect, 100 complete control), read-out: Barnyardgrass plant response rating
In short: (§1)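 Visual injury scored 0–100 (100 = complete control) against untreated controls about 10 days after treatment in a greenhouse. Test chemicals, formulated with surfactant in non-phytotoxic solvent, were sprayed on soil preemergence or on 2-10 cm, one- to two-leaf plants postemergence.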

[2] = system: Italian ryegrass (Lolium multiflorum); experiment: Test A preemergence, visual injury rating; settings: Lolium multiflorum, pre-emergence, 240 h, 0 to 100 scale (0 no effect, 100 complete control), read-out: Ryegrass, Italian plant response rating
In short: as §1

[3] = system: giant foxtail (Setaria faberii); experiment: Test A preemergence, visual injury rating; settings: Setaria faberi, pre-emergence, 240 h, 0 to 100 scale (0 no effect, 100 complete control), read-out: Foxtail, Giant plant response rating
In short: as §1

[4] = system: pigweed (Amaranthus retroflexus); experiment: Test A preemergence, visual injury rating; settings: Amaranthus retroflexus, pre-emergence, 240 h, 0 to 100 scale (0 no effect, 100 complete control), read-out: Pigweed plant response rating
In short: as §1

[5] = system: kochia (Kochia scoparia); experiment: Test A preemergence, visual injury rating; settings: Bassia scoparia, pre-emergence, 240 h, 0 to 100 scale (0 no effect, 100 complete control), read-out: Kochia plant response rating
In short: as §1

[6] = system: ragweed (common ragweed, Ambrosia elatior); experiment: Test A preemergence, visual injury rating; settings: Ambrosia artemisiifolia, pre-emergence, 240 h, 0 to 100 scale (0 no effect, 100 complete control), read-out: Ragweed plant response rating
In short: as §1

[7] = system: wheat (winter wheat, Triticum aestivum); experiment: Test C postemergence, plant response rating; settings: Triticum aestivum, post-emergence
In short: (§2)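 Both timings shared one formulation, a non-phytotoxic solvent mixture with surfactant, and a greenhouse period of 13 to 15 d. Preemergence used seeded loam/sand or silt loam soil, postemergence used 2 to 18 cm plants; visual ratings ran from 0 (no effect) to 100 (complete control).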

[8] = system: soybean (Glycine max); experiment: Test C postemergence, plant response rating; settings: Glycine max, post-emergence
In short: as §2

[9] = system: corn (Zea mays); experiment: Test C postemergence, plant response rating; settings: Zea mays, post-emergence
In short: as §2

[10] = system: foxtail, giant (giant foxtail, Setaria faberii); experiment: Test C postemergence, plant response rating; settings: Setaria faberi, post-emergence
In short: as §2

[11] = system: blackgrass (Alopecurus myosuroides); experiment: Test C postemergence, plant response rating; settings: Alopecurus myosuroides, post-emergence
In short: as §2

[12] = system: chickweed (common chickweed, Stellaria media); experiment: Test C postemergence, plant response rating; settings: Stellaria media, post-emergence
In short: as §2

[13] = system: oat, wild (wild oat Avena fatua); experiment: Test C postemergence, plant response rating; settings: Avena fatua, post-emergence
In short: as §2

[14] = system: ryegrass, Italian (Italian ryegrass, Lolium multiflorum); experiment: Test C postemergence, plant response rating; settings: Lolium multiflorum, post-emergence
In short: as §2

[15] = system: galium (catchweed bedstraw, Galium aparine); experiment: Test C postemergence, plant response rating; settings: Galium, post-emergence
In short: as §2

[16] = system: nutsedge, yellow (yellow nutsedge, Cyperus esculentus); experiment: Test C postemergence, plant response rating; settings: Cyperus, post-emergence
In short: as §2

[17] = system: lambsquarters (Chenopodium album); experiment: Test C postemergence, plant response rating; settings: Chenopodium album, post-emergence
In short: as §2

[18] = system: crabgrass, large (large crabgrass, Digitaria sanguinalis); experiment: Test C postemergence, plant response rating; settings: Digitaria sanguinalis, post-emergence
In short: as §2

[19] = 125 g ai/ha, scale 0 to 100 (0 no effect, 100 complete control)
[20] = 62 g ai/ha, scale 0 to 100 (0 no effect, 100 complete control)

**Q.** N#Cc1cccc(Oc2ncc(Cl)cn2)c1CCCCC(F)(F)F [Compound 73, 3-[(5-chloro-2-pyrimidinyl)oxy]-2-(5,5,5-trifluoropentyl)benzonitrile] was tested. Which pest or weed control at 125 g/ha ([1]; 125 g ai/ha) did it give?
**A.** 100%

**Q.** What about the pest or weed control at 500 g/ha ([1]; 500 g ai/ha) of the same molecule?
**A.** 100%

**Q.** What about the pest or weed control at 125 g/ha ([2]; 125 g ai/ha) of the same molecule?
**A.** 50%

**Q.** What about the pest or weed control at 500 g/ha ([2]; 500 g ai/ha) of the same molecule?
**A.** 90%

**Q.** And the pest or weed control at 125 g/ha ([3]; 125 g ai/ha)?
**A.** 100%

**Q.** And the pest or weed control at 500 g/ha ([3]; 500 g ai/ha)?
**A.** 100%

**Q.** And the pest or weed control at 125 g/ha ([4]; 125 g ai/ha)?
**A.** 100%

**Q.** What about the pest or weed control at 500 g/ha ([4]; 500 g ai/ha) of the same molecule?
**A.** 100%

**Q.** What about the pest or weed control at 125 g/ha ([5]; 125 g ai/ha) of the same molecule?
**A.** 100%

**Q.** What about the pest or weed control at 500 g/ha ([5]; 500 g ai/ha) of the same molecule?
**A.** 100%

**Q.** What about the pest or weed control at 125 g/ha ([6]; 125 g ai/ha) of the same molecule?
**A.** 10%

**Q.** And the pest or weed control at 500 g/ha ([6]; 500 g ai/ha)?
**A.** 50%

**Q.** What about the plant injury at 16 g/ha ([7]; 16 g ai/ha, scale 0 to 100) of the same molecule?
**A.** 0%

**Q.** What about the plant injury at 31 g/ha ([7]; 31 g ai/ha, scale 0 to 100) of the same molecule?
**A.** 5%

**Q.** And the plant injury at 62 g/ha ([7]; 62 g ai/ha, scale 0 to 100 (0 no effect, 100 complete control), read-out: Wheat plant response rating)?
**A.** 5%

**Q.** What about the plant injury at 125 g/ha [7, 19] of the same molecule?
**A.** 5%

**Q.** And the plant injury at 16 g/ha ([8]; 16 g ai/ha, scale 0 to 100)?
**A.** 45%

**Q.** And the plant injury at 31 g/ha ([8]; 31 g ai/ha, scale 0 to 100)?
**A.** 70%

**Q.** What about the plant injury at 62 g/ha [8, 20] of the same molecule?
**A.** 75%

**Q.** What about the plant injury at 125 g/ha [8, 19] of the same molecule?
**A.** 60%

**Q.** What about the Corn plant response rating (crop injury, 0 = no effect, 100 = complete kill) at 16 g/ha ([9]; 16 g ai/ha, scale 0 to 100) of the same molecule?
**A.** 10%

**Q.** What about the Corn plant response rating (crop injury, 0 = no effect, 100 = complete kill) at 31 g/ha ([9]; 31 g ai/ha, scale 0 to 100) of the same molecule?
**A.** 20%

**Q.** And the plant injury at 62 g/ha [9, 20]?
**A.** 15%

**Q.** What about the plant injury at 125 g/ha [9, 19] of the same molecule?
**A.** 15%

**Q.** What about the pest or weed control at 16 g/ha ([10]; 16 g ai/ha, scale 0 to 100) of the same molecule?
**A.** 15%

**Q.** And the pest or weed control at 31 g/ha ([10]; 31 g ai/ha, scale 0 to 100)?
**A.** 25%

**Q.** What about the pest or weed control at 62 g/ha [10, 20] of the same molecule?
**A.** 20%

**Q.** What about the pest or weed control at 125 g/ha [10, 19] of the same molecule?
**A.** 25%

**Q.** And the pest or weed control at 16 g/ha ([11]; 16 g ai/ha, scale 0 to 100)?
**A.** 10%

**Q.** And the pest or weed control at 31 g/ha ([11]; 31 g ai/ha, scale 0 to 100)?
**A.** 5%

**Q.** What about the pest or weed control at 62 g/ha [11, 20] of the same molecule?
**A.** 40%

**Q.** What about the pest or weed control at 125 g/ha [11, 19] of the same molecule?
**A.** 35%

**Q.** What about the pest or weed control at 16 g/ha ([12]; 16 g ai/ha, scale 0 to 100) of the same molecule?
**A.** 80%

**Q.** What about the pest or weed control at 31 g/ha ([12]; 31 g ai/ha, scale 0 to 100) of the same molecule?
**A.** 80%

**Q.** And the pest or weed control at 62 g/ha [12, 20]?
**A.** 90%

**Q.** And the pest or weed control at 125 g/ha [12, 19]?
**A.** 85%

**Q.** And the pest or weed control at 16 g/ha ([13]; 16 g ai/ha, scale 0 to 100)?
**A.** 5%

**Q.** And the pest or weed control at 31 g/ha ([13]; 31 g ai/ha, scale 0 to 100)?
**A.** 5%

**Q.** And the pest or weed control at 62 g/ha [13, 20]?
**A.** 5%

**Q.** What about the pest or weed control at 125 g/ha [13, 19] of the same molecule?
**A.** 10%

**Q.** And the pest or weed control at 16 g/ha ([14]; 16 g ai/ha, scale 0 to 100)?
**A.** 5%

**Q.** What about the pest or weed control at 31 g/ha ([14]; 31 g ai/ha, scale 0 to 100) of the same molecule?
**A.** 5%

**Q.** And the pest or weed control at 62 g/ha [14, 20]?
**A.** 10%

**Q.** What about the pest or weed control at 125 g/ha [14, 19] of the same molecule?
**A.** 20%

**Q.** And the pest or weed control at 16 g/ha ([15]; 16 g ai/ha, scale 0 to 100)?
**A.** 70%

**Q.** What about the pest or weed control at 31 g/ha ([15]; 31 g ai/ha, scale 0 to 100) of the same molecule?
**A.** 70%

**Q.** What about the pest or weed control at 62 g/ha [15, 20] of the same molecule?
**A.** 75%

**Q.** What about the pest or weed control at 125 g/ha [15, 19] of the same molecule?
**A.** 98%

**Q.** And the pest or weed control at 16 g/ha ([16]; 16 g ai/ha, scale 0 to 100)?
**A.** 5%

**Q.** And the pest or weed control at 31 g/ha ([16]; 31 g ai/ha, scale 0 to 100)?
**A.** 15%

**Q.** And the pest or weed control at 62 g/ha [16, 20]?
**A.** 20%

**Q.** What about the pest or weed control at 125 g/ha [16, 19] of the same molecule?
**A.** 30%

**Q.** And the pest or weed control at 16 g/ha ([17]; 16 g ai/ha, scale 0 to 100)?
**A.** 75%

**Q.** What about the pest or weed control at 31 g/ha ([17]; 31 g ai/ha, scale 0 to 100) of the same molecule?
**A.** 80%

**Q.** And the pest or weed control at 62 g/ha [17, 20]?
**A.** 90%

**Q.** And the pest or weed control at 125 g/ha [17, 19]?
**A.** 98%

**Q.** What about the pest or weed control at 16 g/ha ([18]; 16 g ai/ha, scale 0 to 100) of the same molecule?
**A.** 15%

**Q.** And the pest or weed control at 31 g/ha ([18]; 31 g ai/ha, scale 0 to 100)?
**A.** 10%

**Q.** And the pest or weed control at 62 g/ha [18, 20]?
**A.** 25%

**Q.** What about the pest or weed control at 125 g/ha [18, 19] of the same molecule?
**A.** 60%
